Where two headings read alike, the source gives them in different places.
Assays:
C2C12 myotubes = conditions: for Viability (composite Z-score): normalized score vs mock-treated (DMSO) wells
[1] = tested on: mitochondrial membrane potential; type: cell-based, mouse; conditions: for ΔΨm (composite Z-score): normalized score vs mock-treated (DMSO) wells
cytochrome c = type: cell-based, mouse; conditions: for cyt c (composite Z-score): normalized score vs mock-treated (DMSO) wells
nuOXPHOS transcripts = type: cell-based, mouse; conditions: for nucOX (composite Z-score): normalized score vs mock-treated (DMSO) wells
reactive oxygen species = type: cell-based, mouse; conditions: for ROS (composite Z-score): normalized score vs mock-treated (DMSO) wells
OXPHOS gene expression = type: cell-based, mouse; conditions: for GE-HTS (composite Z-score): normalized score vs mock-treated (DMSO) wells
mtOXPHOS transcripts = type: cell-based, mouse; conditions: for mitoOX (composite Z-score): normalized score vs mock-treated (DMSO) wells
[2] = tested on: cellular dehydrogenase activity; conditions: for MTT (composite Z-score): normalized score vs mock-treated (DMSO) wells
[3] = composite Z-score vs mock-treated (DMSO) wells, Conc 20 μM
[4] = composite Z-score vs mock-treated (DMSO) wells, concentration of each compound in μM
[5] = 20 μM, composite Z-score vs DMSO
[6] = normalized composite Z-score vs mock-treated (DMSO) wells, Conc 20 μM
[7] = composite Z-score vs DMSO, Conc 8.92 μM
[8] = composite Z-score vs DMSO, Conc 20 μM

In the case of CC(C)c1c(O)ccc2c1CCC1[C@@](C)(C=O)CCC[C@]21C (some centres unmarked) [totaralolal], the Viability (C2C12 myotubes; [3]) is reported as 0.591, the ΔΨm [1, 3] is reported as 0.460 and the cyt c (cytochrome c; [3]) is reported as −0.226. It also gave a nucOX (nuOXPHOS transcripts; [3]) of −0.401, an ROS (reactive oxygen species; [3]) of 1.617 and a GE-HTS (OXPHOS gene expression; [3]) of −0.700. The mitoOX (mtOXPHOS transcripts; [3]) was −1.230 and the MTT [2, 3] was 1.526.

For COC(=O)[C@@]1(C)CCC[C@]2(C)c3ccc(O)c(C(C)C)c3CCC12 (some centres unmarked) [totarol-19-carboxylic acid, methyl ester], the Viability (C2C12 myotubes; [3]) was −0.739, the ΔΨm [1, 3] was −0.409 and the cyt c (cytochrome c; [3]) was 0.085. The nucOX (nuOXPHOS transcripts; [3]) was −0.005, the ROS (reactive oxygen species; [3]) was 1.290 and the GE-HTS (OXPHOS gene expression; [3]) was −0.323. For the same molecule, the mitoOX (mtOXPHOS transcripts; [3]) was −0.853 and the MTT [2, 3] was 1.019.

CC(C)c1c(O)ccc2c1CCC1C(C)(C(=O)O)CCCC21C (centres unmarked) [totarol-19-carboxylic acid] gave a Viability (C2C12 myotubes; [4]) of −0.506, a ΔΨm [1, 4] of −0.008 and a cyt c (cytochrome c; [4]) of −1.116. It also gave a nucOX (nuOXPHOS transcripts; [4]) of −0.494, an ROS (reactive oxygen species; [4]) of −0.209 and a GE-HTS (OXPHOS gene expression; [4]) of −0.399. For the same molecule, the mitoOX (mtOXPHOS transcripts; [4]) was −0.073 and the MTT [2, 4] was −1.701.

CCOC(=O)[C@H](CCc1ccccc1)N[C@@H](C)C(=O)N1[C@H](C(=O)O)C[C@H]2CCCC[C@@H]21 [trandoapril] gave a Viability (C2C12 myotubes; [4]) of 0.694, a ΔΨm [1, 4] of −0.210 and a cyt c (cytochrome c; [4]) of 0.687. For the same molecule, the nucOX (nuOXPHOS transcripts; [4]) was −1.466, the ROS (reactive oxygen species; [4]) was 0.572 and the GE-HTS (OXPHOS gene expression; [4]) was −1.375. The mitoOX (mtOXPHOS transcripts; [4]) was −0.884 and the MTT [2, 4] was −0.684.

Molecule CC(=O)OCC(COC(C)=O)OC(C)=O [triacetin] has a Viability (C2C12 myotubes; [5]) of −0.842, a ΔΨm [1, 5] of −0.571 and a cyt c (cytochrome c; [5]) of −0.264. For the same molecule, the nucOX (nuOXPHOS transcripts; [5]) was −0.187, the ROS (reactive oxygen species; [5]) was 0.431 and the GE-HTS (OXPHOS gene expression; [5]) was −0.327. It also gave a mitoOX (mtOXPHOS transcripts; [5]) of −0.569 and an MTT [2, 5] of −0.717.

CC(=O)Oc1ccc(/C=C/c2cc(OC(C)=O)cc(OC(C)=O)c2)cc1 [triacetylresveratrol] gave a Viability (C2C12 myotubes; [6]) of −0.198, a ΔΨm [1, 6] of −3.502 and a cyt c (cytochrome c; [6]) of 0.683. It also gave a nucOX (nuOXPHOS transcripts; [6]) of −1.858, an ROS (reactive oxygen species; [6]) of −1.361 and a GE-HTS (OXPHOS gene expression; [6]) of −1.841. It also gave a mitoOX (mtOXPHOS transcripts; [6]) of −1.401 and an MTT [2, 6] of −2.002.

CC(CN(C)C)CN1c2ccccc2Sc2ccccc21 (centres unmarked) [trimeprazine] showed a Viability (C2C12 myotubes; [7]) of 0.760, a Viability (C2C12 myotubes; [8]) of −1.472 and a ΔΨm [1, 7] of −0.821. For the same molecule, the ΔΨm [1, 8] was 1.905, the cyt c (cytochrome c; [7]) was −2.786 and the cyt c (cytochrome c; [8]) was −0.086. The nucOX (nuOXPHOS transcripts; [7]) was −0.936, the nucOX (nuOXPHOS transcripts; [8]) was −0.130 and the ROS (reactive oxygen species; [7]) was 1.314. The ROS (reactive oxygen species; [8]) was −0.430, the GE-HTS (OXPHOS gene expression; [7]) was −0.942 and the GE-HTS (OXPHOS gene expression; [8]) was −0.013. It also gave a mitoOX (mtOXPHOS transcripts; [7]) of −0.778, a mitoOX (mtOXPHOS transcripts; [8]) of 0.208 and an MTT [2, 7] of −2.221. The MTT [2, 8] was −2.227.

For CC(C)c1ccc2c(c1O)CC[C@H]1C3=C(CC[C@]21C)C(=O)OC3 [triptophenolide], the “Viability (composite Z-score)” value (C2C12 myotubes; Conc 20 μM) was −0.599, the “ΔΨm (composite Z-score)” value ([1]; Conc 20 μM) was 1.886 and the “cyt c (composite Z-score)” value (cytochrome c; Conc 20 μM) was −0.593. For the same molecule, the “nucOX (composite Z-score)” value (nuOXPHOS transcripts; Conc 20 μM) was 0.038, the “ROS (composite Z-score)” value (reactive oxygen species; Conc 20 μM) was −1.072 and the “GE-HTS (composite Z-score)” value (OXPHOS gene expression; Conc 20 μM) was −0.110. The “mitoOX (composite Z-score)” value (mtOXPHOS transcripts; Conc 20 μM) was −0.350 and the “MTT (composite Z-score)” value ([2]; Conc 20 μM) was −1.067.

In the case of CO[C@H]1C[C@H](O[C@H]2[C@H](C)[C@@H](O[C@@H]3O[C@H](C)C[C@H](N(C)C)[C@H]3OC(C)=O)[C@@H](C)C[C@@]3(CO3)C(=O)[C@H](C)[C@@H](OC(C)=O)[C@@H](C)[C@@H](C)OC(=O)[C@@H]2C)O[C@@H](C)[C@@H]1OC(C)=O [troleandomycin], the Viability (C2C12 myotubes; [8]) is reported as −1.520, the ΔΨm [1, 8] is reported as −0.780 and the cyt c (cytochrome c; [8]) is reported as −0.063. For the same molecule, the nucOX (nuOXPHOS transcripts; [8]) was −1.277, the ROS (reactive oxygen species; [8]) was 0.099 and the GE-HTS (OXPHOS gene expression; [8]) was −1.234. For the same molecule, the mitoOX (mtOXPHOS transcripts; [8]) was −0.905 and the MTT [2, 8] was −1.250.

For C=C(C)C1Cc2c(ccc(C(=O)O)c2O)O1 (centres unmarked) [tubaic acid], the “Viability (composite Z-score)” value (C2C12 myotubes; Conc 20 μM) was −0.569, the “ΔΨm (composite Z-score)” value ([1]; Conc 20 μM) was −0.489 and the “cyt c (composite Z-score)” value (cytochrome c; Conc 20 μM) was 0.089. The “nucOX (composite Z-score)” value (nuOXPHOS transcripts; Conc 20 μM) was −1.065, the “ROS (composite Z-score)” value (reactive oxygen species; Conc 20 μM) was 0.646 and the “GE-HTS (composite Z-score)” value (OXPHOS gene expression; Conc 20 μM) was −0.746. The “mitoOX (composite Z-score)” value (mtOXPHOS transcripts; Conc 20 μM) was 0.070 and the “MTT (composite Z-score)” value ([2]; Conc 20 μM) was 0.150.

For CC(C)(C)NCC(O)c1ccccc1Cl (centres unmarked) [tulobuterol], the Viability (C2C12 myotubes; [5]) was −0.239, the ΔΨm [1, 5] was −1.186 and the cyt c (cytochrome c; [5]) was 0.326. The nucOX (nuOXPHOS transcripts; [5]) was −0.257, the ROS (reactive oxygen species; [5]) was 0.569 and the GE-HTS (OXPHOS gene expression; [5]) was −0.101. For the same molecule, the mitoOX (mtOXPHOS transcripts; [5]) was 0.258 and the MTT [2, 5] was −0.706.

Molecule C[C@H](CCC(=O)O)[C@H]1CC[C@H]2[C@@H]3CC[C@@H]4CCCC[C@]4(C)[C@H]3CC[C@]12C [ursocholanic acid] has a Viability (C2C12 myotubes; [8]) of 0.050, a ΔΨm [1, 8] of −1.738 and a cyt c (cytochrome c; [8]) of 1.303. The nucOX (nuOXPHOS transcripts; [8]) was −0.946, the ROS (reactive oxygen species; [8]) was 0.978 and the GE-HTS (OXPHOS gene expression; [8]) was −0.920. It also gave a mitoOX (mtOXPHOS transcripts; [8]) of −0.657 and an MTT [2, 8] of −0.246.
